Laboratory results published in article PMC5218480 (PLoS ONE, 2017).

Tested on: MV-4-11 cells
Assay: Gene expression microarray analysis (Affymetrix PrimeView) and GSEA
Assay type: cell-based, human
Parameters: RFU PODN (11730768_x_at) / Fold change /veh PODN (11730768_x_at) / RFU LINC00158 (11744669_a_at) / Fold change /veh LINC00158 (11744669_a_at) / RFU DUSP10 (11751237_a_at) / Fold change /veh DUSP10 (11751237_a_at) / RFU ID3 (11757404_x_at) / Fold change /veh ID3 (11757404_x_at) / RFU PLEKHG5 (11737974_s_at) / Fold change /veh PLEKHG5 (11737974_s_at) / RFU LRRC4B (11730491_at) / Fold change /veh LRRC4B (11730491_at) / RFU GIMAP4 (11747438_a_at) / Fold change /veh GIMAP4 (11747438_a_at) / RFU KRT8 (11758183_x_at) / Fold change /veh KRT8 (11758183_x_at) / RFU CNN1 (11734310_a_at) / Fold change /veh CNN1 (11734310_a_at) / RFU VPS37D (11726825_at) / Fold change /veh VPS37D (11726825_at) / RFU C10orf10 (11716522_x_at) / Fold change /veh C10orf10 (11716522_x_at) / RFU KIR2DL2 /// KIR2DL4 /// KIR2DL5A /// KIR2DL5B /// KIR2DS1 /// KIR2DS2 /// KIR2DS3 /// KIR2DS4 /// KIR3DL3 /// KIR3DL3 /// KIR3DS1 (11738374_at) / Fold change /veh KIR2DL2 /// KIR2DL4 /// KIR2DL5A /// KIR2DL5B /// KIR2DS1 /// KIR2DS2 /// KIR2DS3 /// KIR2DS4 /// KIR3DL3 /// KIR3DL3 /// KIR3DS1 (11738374_at) / RFU C1QL1 (11718748_at) / Fold change /veh C1QL1 (11718748_at) / RFU TMPRSS4 (11747572_a_at) / Fold change /veh TMPRSS4 (11747572_a_at) / RFU HAMP (11756126_x_at) / Fold change /veh HAMP (11756126_x_at) / RFU RNFT2 (11725882_a_at) / Fold change /veh RNFT2 (11725882_a_at) / RFU NR4A2 (11747474_a_at) / Fold change /veh NR4A2 (11747474_a_at) / RFU ABCC12 (11746883_a_at) / Fold change /veh ABCC12 (11746883_a_at) / RFU TMEM136 (11760407_x_at) / Fold change /veh TMEM136 (11760407_x_at) / RFU CLDN22 /// WWC2 (11732394_at) / Fold change /veh CLDN22 /// WWC2 (11732394_at) / RFU HLA-DPB1 (11760878_x_at) / Fold change /veh HLA-DPB1 (11760878_x_at) / RFU SPINT1 (11716480_a_at) / Fold change /veh SPINT1 (11716480_a_at) / RFU GAP43 (11754022_s_at) / Fold change /veh GAP43 (11754022_s_at) / RFU A4GNT (11735810_at) / Fold change /veh A4GNT (11735810_at) / RFU PRB3 (11715151_x_at) / Fold change /veh PRB3 (11715151_x_at) / RFU TUBB4B (11761932_at) / Fold change /veh TUBB4B (11761932_at) / RFU CAPN14 (11732068_a_at) / Fold change /veh CAPN14 (11732068_a_at) / RFU TMCC2 (11721928_a_at) / Fold change /veh TMCC2 (11721928_a_at) / RFU IRGQ (11745062_a_at) / Fold change /veh IRGQ (11745062_a_at) / RFU FAM174B (11720279_a_at) / Fold change /veh FAM174B (11720279_a_at) / RFU TMPRSS4 (11748680_a_at) / Fold change /veh TMPRSS4 (11748680_a_at) / RFU FAM212B (11763350_a_at) / Fold change /veh FAM212B (11763350_a_at) / RFU PLEKHG5 (11743358_a_at) / Fold change /veh PLEKHG5 (11743358_a_at) / RFU ZSCAN30 (11745921_a_at) / Fold change /veh ZSCAN30 (11745921_a_at) / RFU CMKLR1 (11741424_a_at) / Fold change /veh CMKLR1 (11741424_a_at) / RFU LOC101060620 /// MAPK8IP1 (11723275_at) / Fold change /veh LOC101060620 /// MAPK8IP1 (11723275_at) / RFU SPTSSB (11747773_x_at) / Fold change /veh SPTSSB (11747773_x_at) / RFU PRSS12 (11739890_at) / Fold change /veh PRSS12 (11739890_at) / RFU BIN1 (11741810_x_at) / Fold change /veh BIN1 (11741810_x_at) / RFU WNT11 (11732464_a_at) / Fold change /veh WNT11 (11732464_a_at) / RFU C10orf10 (11716521_a_at) / Fold change /veh C10orf10 (11716521_a_at) / RFU C5orf56 (11738089_at) / Fold change /veh C5orf56 (11738089_at) / RFU CYB561 (11721691_x_at) / Fold change /veh CYB561 (11721691_x_at) / RFU ANKRD19P (11752326_a_at) / Fold change /veh ANKRD19P (11752326_a_at) / RFU OR2T12 /// OR2T33 /// OR2T8 (11738714_s_at) / Fold change /veh OR2T12 /// OR2T33 /// OR2T8 (11738714_s_at) / RFU VCAN (11748164_a_at) / Fold change /veh VCAN (11748164_a_at) / RFU JSRP1 (11732532_at) / Fold change /veh JSRP1 (11732532_at) / RFU KRTAP10-11 (11738290_x_at) / Fold change /veh KRTAP10-11 (11738290_x_at) / RFU MYO3A (11730013_a_at) / Fold change /veh MYO3A (11730013_a_at) / RFU EBF3 (11725865_a_at) / Fold change /veh EBF3 (11725865_a_at) / RFU CAMK2N1 (11719241_x_at) / Fold change /veh CAMK2N1 (11719241_x_at) / RFU C5orf56 (11738088_a_at) / Fold change /veh C5orf56 (11738088_a_at) / RFU OLFML3 (11715873_a_at) / Fold change /veh OLFML3 (11715873_a_at) / RFU LOC100653217 /// NTM (11731650_a_at) / Fold change /veh LOC100653217 /// NTM (11731650_a_at) / RFU MAPK11 (11762145_a_at) / Fold change /veh MAPK11 (11762145_a_at) / RFU FIZ1 (11724087_x_at) / Fold change /veh FIZ1 (11724087_x_at) / RFU OASL (11726364_x_at) / Fold change /veh OASL (11726364_x_at) / RFU SOX15 (11748057_x_at) / Fold change /veh SOX15 (11748057_x_at) / RFU CD79A (11719716_a_at) / Fold change /veh CD79A (11719716_a_at) / RFU HIST1H1D (11736915_at) / Fold change /veh HIST1H1D (11736915_at) / RFU CASKIN2 (11723855_a_at) / Fold change /veh CASKIN2 (11723855_a_at) / RFU LOC730098 (11760151_x_at) / Fold change /veh LOC730098 (11760151_x_at) / RFU OR4N2 (11742367_at) / Fold change /veh OR4N2 (11742367_at) / RFU PRRT2 (11749266_a_at) / Fold change /veh PRRT2 (11749266_a_at) / RFU SNX32 (11753110_a_at) / Fold change /veh SNX32 (11753110_a_at) / RFU CDHR5 (11726645_a_at) / Fold change /veh CDHR5 (11726645_a_at) / RFU RCAN1 (11760418_a_at) / Fold change /veh RCAN1 (11760418_a_at) / RFU FAM167A (11723789_a_at) / Fold change /veh FAM167A (11723789_a_at) / RFU FAM26E (11764081_at) / Fold change /veh FAM26E (11764081_at) / RFU ISYNA1 (11749810_s_at) / Fold change /veh ISYNA1 (11749810_s_at) / RFU ACY1 (11761880_at) / Fold change /veh ACY1 (11761880_at) / RFU 11764098_at / Fold change /veh 11764098_at / RFU SAMD14 (11745864_x_at) / Fold change /veh SAMD14 (11745864_x_at) / RFU NPB (11741838_a_at) / Fold change /veh NPB (11741838_a_at) / RFU TMPRSS6 (11731388_a_at) / Fold change /veh TMPRSS6 (11731388_a_at) / RFU KRTAP10-2 (11738614_at) / Fold change /veh KRTAP10-2 (11738614_at) / RFU ARHGAP8 /// PRR5-ARHGAP8 (11727945_x_at) / Fold change /veh ARHGAP8 /// PRR5-ARHGAP8 (11727945_x_at) / RFU KRTAP5-7 /// NADSYN1 (11734609_at) / Fold change /veh KRTAP5-7 /// NADSYN1 (11734609_at) / RFU RASL12 (11751679_a_at) / Fold change /veh RASL12 (11751679_a_at) / RFU CDKN2B (11736163_a_at) / Fold change /veh CDKN2B (11736163_a_at) / RFU PRF1 (11729649_at) / Fold change /veh PRF1 (11729649_at) / RFU, ZNF638 /// ZNF638-IT1 / Fold change vs veh, ZNF638 /// ZNF638-IT1 / RFU, PANK3 / Fold change vs veh, PANK3 / RFU, SH3YL1 / Fold change vs veh, SH3YL1 / RFU, ZEB2 / Fold change vs veh, ZEB2 / RFU, NRIP1 / Fold change vs veh, NRIP1 / RFU, PTTG1IP / Fold change vs veh, PTTG1IP / RFU, CAPN2 / Fold change vs veh, CAPN2 / RFU, MED14 / Fold change vs veh, MED14 / RFU, SNORA58 / Fold change vs veh, SNORA58 / RFU, C1orf63 / Fold change vs veh, C1orf63 / RFU, LRRFIP1 / Fold change vs veh, LRRFIP1 / RFU, NDUFAF7 / Fold change vs veh, NDUFAF7 / RFU, SLC12A2 / Fold change vs veh, SLC12A2 / RFU, IBTK / Fold change vs veh, IBTK / RFU, ESF1 / Fold change vs veh, ESF1 / Fold change vs veh, TMEM50B / RFU, TAOK1 / Fold change vs veh, TAOK1 / RFU, ACBD3 / Fold change vs veh, ACBD3 / RFU, TMA16 / Fold change vs veh, TMA16 / RFU, RWDD3 / Fold change vs veh, RWDD3 / RFU, BCAT1 / Fold change vs veh, BCAT1 / RFU, EDEM3 / Fold change vs veh, EDEM3 / RFU, TMEM33 / Fold change vs veh, TMEM33 / RFU, WDR75 / Fold change vs veh, WDR75 / RFU, AHCTF1 / Fold change vs veh, AHCTF1 / RFU, TFRC / Fold change vs veh, TFRC / RFU, ZDHHC17 / Fold change vs veh, ZDHHC17 / RFU, NOM1 / Fold change vs veh, NOM1 / RFU, ARL8B / Fold change vs veh, ARL8B / RFU, ZBTB11 / Fold change vs veh, ZBTB11 / RFU, TAMM41 / Fold change vs veh, TAMM41 / RFU, KIAA1704 /// LOC100996395 / Fold change vs veh, KIAA1704 /// LOC100996395 / RFU, ING1 / Fold change vs veh, ING1 / RFU, TRMT61B / Fold change vs veh, TRMT61B / RFU, FUBP3 / Fold change vs veh, FUBP3 / RFU, TP53 / Fold change vs veh, TP53 / RFU, TNKS2 / Fold change vs veh, TNKS2 / RFU, ZFP14 / Fold change vs veh, ZFP14 / RFU, ACTR2 / Fold change vs veh, ACTR2 / RFU, PPP3R1 / Fold change vs veh, PPP3R1 / RFU, PIK3R1 / Fold change vs veh, PIK3R1 / RFU, HNRNPA1 / Fold change vs veh, HNRNPA1 / RFU, RNF170 / Fold change vs veh, RNF170 / RFU, ZNF28 / Fold change vs veh, ZNF28 / RFU, RNGTT / Fold change vs veh, RNGTT / RFU, OGT / Fold change vs veh, OGT / RFU, BRD1 / Fold change vs veh, BRD1 / RFU, MARS / Fold change vs veh, MARS / RFU, ZNF655 / Fold change vs veh, ZNF655 / RFU, FAHD1 / Fold change vs veh, FAHD1 / RFU, BDP1 / Fold change vs veh, BDP1 / RFU, LRRCC1 / Fold change vs veh, LRRCC1 / RFU, ARID1A / Fold change vs veh, ARID1A / RFU, ZNF146 / Fold change vs veh, ZNF146 / RFU, ZNF330 / Fold change vs veh, ZNF330 / RFU, GPN3 / Fold change vs veh, GPN3 / RFU, C9orf123 / Fold change vs veh, C9orf123 / RFU, N4BP2L2 / Fold change vs veh, N4BP2L2 / RFU, ARFIP1 / Fold change vs veh, ARFIP1 / RFU, FAM179B / Fold change vs veh, FAM179B / RFU, BCL10 / Fold change vs veh, BCL10 / RFU, UHRF1BP1L / Fold change vs veh, UHRF1BP1L / RFU, BET1 / Fold change vs veh, BET1 / RFU, CNOT2 / Fold change vs veh, CNOT2 / RFU, ZNF268 / Fold change vs veh, ZNF268 / Fold change vs veh, ZNF507 / RFU, DGCR2 / Fold change vs veh, DGCR2 / RFU, WDSUB1 / Fold change vs veh, WDSUB1 / Fold change vs veh, HSP90B1 /// MIR3652 / RFU, ADSS / Fold change vs veh, ADSS / RFU, GK / Fold change vs veh, GK / RFU, ZNF148 / Fold change vs veh, ZNF148 / RFU, TAF9 / Fold change vs veh, TAF9 / RFU, SLC1A5 / Fold change vs veh, SLC1A5 / RFU, SLMO2 / Fold change vs veh, SLMO2 / RFU, ABCC4 / Fold change vs veh, ABCC4 / RFU, LOC101060439 /// RAP1B / Fold change vs veh, LOC101060439 /// RAP1B / RFU, RFX7 / Fold change vs veh, RFX7 / RFU, GTPBP10 / Fold change vs veh, GTPBP10 / RFU, CNEP1R1 / Fold change vs veh, CNEP1R1 / RFU, BIVM-ERCC5 /// ERCC5 / Fold change vs veh, BIVM-ERCC5 /// ERCC5 / RFU, ILF3 / Fold change vs veh, ILF3 / RFU 11762660_at / Fold change /veh 11762660_at / RFU VCAN (11757783_s_at) / Fold change /veh VCAN (11757783_s_at) / RFU DDX43 (11728927_at) / Fold change /veh DDX43 (11728927_at) / RFU KRT8 (11758188_x_at) / Fold change /veh KRT8 (11758188_x_at) / RFU NKD1 (11759106_at) / Fold change /veh NKD1 (11759106_at) / RFU SRD5A1 (11742802_a_at) / Fold change /veh SRD5A1 (11742802_a_at) / RFU TPSAB1 /// TPSB2 (11721975_s_at) / Fold change /veh TPSAB1 /// TPSB2 (11721975_s_at) / RFU GSTM3 (11746129_a_at) / Fold change /veh GSTM3 (11746129_a_at) / RFU IL23R (11737362_x_at) / Fold change /veh IL23R (11737362_x_at) / RFU TMEM51 (11727254_a_at) / Fold change /veh TMEM51 (11727254_a_at) / RFU PIWIL2 (11732686_x_at) / Fold change /veh PIWIL2 (11732686_x_at) / RFU ORM1 (11744905_x_at) / Fold change /veh ORM1 (11744905_x_at) / RFU CCDC152 (11743942_at) / Fold change /veh CCDC152 (11743942_at) / RFU ECM1 (11717891_a_at) / Fold change /veh ECM1 (11717891_a_at) / RFU IL23R (11748794_a_at) / Fold change /veh IL23R (11748794_a_at) / RFU TNFAIP8L3 (11732012_x_at) / Fold change /veh TNFAIP8L3 (11732012_x_at) / RFU MBOAT4 (11741988_at) / Fold change /veh MBOAT4 (11741988_at) / RFU 11764193_at / Fold change /veh 11764193_at / RFU TMEM53 (11763286_at) / Fold change /veh TMEM53 (11763286_at) / RFU MAGEB2 (11727129_at) / Fold change /veh MAGEB2 (11727129_at) / RFU TMEM200A (11744735_a_at) / Fold change /veh TMEM200A (11744735_a_at) / RFU CCDC152 (11751479_a_at) / Fold change /veh CCDC152 (11751479_a_at) / RFU FAM211A (11726209_a_at) / Fold change /veh FAM211A (11726209_a_at) / RFU RGS16 (11746705_a_at) / Fold change /veh RGS16 (11746705_a_at) / RFU VCAN (11755009_s_at) / Fold change /veh VCAN (11755009_s_at) / RFU RHOB (11743442_s_at) / Fold change /veh RHOB (11743442_s_at) / RFU RGS16 (11720943_a_at) / Fold change /veh RGS16 (11720943_a_at) / RFU RGS16 (11720944_at) / Fold change /veh RGS16 (11720944_at) / RFU, VPS4B / Fold change vs veh, VPS4B / RFU, CREB1 / Fold change vs veh, CREB1 / RFU, DNAJC13 / Fold change vs veh, DNAJC13 / RFU, GNAQ / Fold change vs veh, GNAQ / RFU, CDK5R1 / Fold change vs veh, CDK5R1 / RFU, ZRANB3 / Fold change vs veh, ZRANB3 / RFU, CUL4A / Fold change vs veh, CUL4A / RFU, CCNY / Fold change vs veh, CCNY / RFU, UFL1 / Fold change vs veh, UFL1 / RFU, COG3 / Fold change vs veh, COG3 / RFU, DIAPH2 / Fold change vs veh, DIAPH2 / RFU, SKA2 / Fold change vs veh, SKA2 / RFU, AFF3 / Fold change vs veh, AFF3 / RFU, LMF1 / Fold change vs veh, LMF1 / RFU, IPO11 / Fold change vs veh, IPO11 / RFU, DFFB / Fold change vs veh, DFFB / RFU, FOXP1 / Fold change vs veh, FOXP1 / RFU, CARD8 / Fold change vs veh, CARD8 / RFU, STRN3 / Fold change vs veh, STRN3 / RFU, ADK / Fold change vs veh, ADK / RFU, RASSF2 / Fold change vs veh, RASSF2 / RFU, WIPF1 / Fold change vs veh, WIPF1 / RFU, LARP1B / Fold change vs veh, LARP1B / RFU, RASA1 / Fold change vs veh, RASA1 / RFU, RB1 / Fold change vs veh, RB1 / RFU, PPFIA1 / Fold change vs veh, PPFIA1 / RFU, MAT2A / Fold change vs veh, MAT2A / RFU, CCT5 / Fold change vs veh, CCT5 / RFU, WDR92 / Fold change vs veh, WDR92 / RFU, CUX1 / Fold change vs veh, CUX1 / RFU, TTC7A / Fold change vs veh, TTC7A / RFU, TMEM135 / Fold change vs veh, TMEM135 / RFU, DEPTOR / Fold change vs veh, DEPTOR / RFU, CPM / Fold change vs veh, CPM / RFU, DNAJB6 / Fold change vs veh, DNAJB6 / RFU, CACNA2D3 / Fold change vs veh, CACNA2D3 / RFU, DTX4 / Fold change vs veh, DTX4 / RFU, TFCP2 / Fold change vs veh, TFCP2 / RFU, GMCL1 /// GMCL1P1 / Fold change vs veh, GMCL1 /// GMCL1P1 / RFU, AEBP2 / Fold change vs veh, AEBP2 / RFU, SNHG1 /// SNORD22 /// SNORD25 /// SNORD26 /// SNORD27 /// SNORD28 /// SNORD29 /// SNORD31 / Fold change vs veh, SNHG1 /// SNORD22 /// SNORD25 /// SNORD26 /// SNORD27 /// SNORD28 /// SNORD29 /// SNORD31 / Fold change (Aza/veh), C12orf56 (ProbeSet 11735607_a_at) / Fold change (ACY-1035/veh), C12orf56 (ProbeSet 11735607_a_at) / Fold change (Aza/veh), FGFR1OP (ProbeSet 11751329_s_at) / Fold change (ACY-1035/veh), FGFR1OP (ProbeSet 11751329_s_at) / Fold change (Aza/veh), VPS36 (ProbeSet 11739960_a_at) / Fold change (ACY-1035/veh), VPS36 (ProbeSet 11739960_a_at) / RFU SYPL1 (11715823_x_at) / Fold change /veh SYPL1 (11715823_x_at) / RFU IGFBP7 (11715501_s_at) / Fold change /veh IGFBP7 (11715501_s_at) / RFU REEP3 (11722064_at) / Fold change /veh REEP3 (11722064_at) / RFU IGLL1 (11728026_x_at) / Fold change /veh IGLL1 (11728026_x_at): dose or concentration left out as unconfirmed
Conditions: ProbeSet 11743362_s_at; LIST B

## Nc1ncn([C@@H]2O[C@H](CO)[C@@H](O)[C@H]2O)c(=O)n1 [azacitidine]
  Fold change vs veh, ADSS: 0.89
